Measured values published in patent publication US5786480A, “4-substituted pyrazoloquinoline derivatives” (Schering Corporation, priority 1996, dated 1998).
≈ marks a conversion by molar mass, not a printed value.

Columns and labels:
[1] = tested on: HSV Early Gene Expression; experiment: Transient Expression Assay for Effects Against HSV Early Gene Expression (beta Galactosidase Assay, βgal); type: cell-based
Experimental: (§1) The compound toxicity assay (3H-LEU), Plaque Reduction Assay for HSV Antiviral Activity (Plaque), and Transient Expression Assay for Effects Against HSV Early Gene Expression (β Galactosidase Assay or βgal) were carried out as set forth in U.S. Pat. No. 5,175,151 which is hereby incorporated by reference.

[2] = compound toxicity assay (3H-LEU); type: cell-based
Experimental: as §1

HSV [3] = experiment: Plaque Reduction Assay for HSV Antiviral Activity (Plaque); type: cell-based
Experimental: as §1

HSV-1 = settings: Haines et al., U.S. Pat. No. 4,757,088; cited from earlier work
HSV-2 = settings: Haines et al., U.S. Pat. No. 4,757,088; cited from earlier work
HSV [4] = settings: humans; Haines et al.; cited from earlier work
herpes virus [5] = settings: mammals; Haines et al., U.S. Pat. No. 4,757,088; cited from earlier work
herpes virus [6] = settings: addition of panthothenic acid or its alcohol and salt forms, dexpanthenol and pantothenate; Haines et al.; cited from earlier work

Structure (SMILES) | IC50 [1] [µg/mL] | IC50 (HSV [3]) [µg/mL] | other results
CCCCNc1c2cc(OC)cc(C)c2nc2[nH]nc(C)c12 [(19)] | 3 (≈ 10.1 µM) |  | CC50 [2]: 21.5 µg/mL (≈ 72.1 µM)
COc1ccc2nc3[nH]nc(C)c3c(NCC(=O)O)c2c1 [(27)] | 20 (≈ 69.9 µM) |  | 
CCCCNc1c2cc(C)ccc2nc2[nH]nc(C)c12 [(18)] | 3 (≈ 11.2 µM) |  | CC50 [2]: 21.5 µg/mL (≈ 80.1 µM)
COc1ccc2nc3[nH]nc(C)c3c(NCC(=O)NCCCN3CCCC3=O)c2c1 [(28)] | 2 (≈ 4.87 µM) | 20 (≈ 48.7 µM) | 
COc1ccc2nc3[nH]nc(C)c3c(NCCc3ccccn3)c2c1 [(5)] | 1 (≈ 3 µM) | 7.5 (≈ 22.5 µM) | 
COc1ccc2nc3[nH]nc(C)c3c(NCC(=O)NCCN3CCCCC3)c2c1 [(29)] | 6 (≈ 15.1 µM) | 20 (≈ 50.4 µM) | 
COc1ccc2nc3c(cc2c1)c(C)nn3C(=O)[C@@H](N)C(C)C [(21)] | 0.2 (≈ 0.64 µM) | 20 (≈ 64 µM) | 
CCCCNc1c2cc(OC)ccc2nc2[nH]nc(C)c12 [(17)] | < 3 |  | CC50 [2]: 3.2 µg/mL (≈ 11.3 µM)
COc1ccc2nc3c(cc2c1)c(C)nn3C(=O)[C@H](C)N [(22)] | 0.2 (≈ 0.703 µM) | 0.2 (≈ 0.703 µM) | 
COc1ccc2nc3[nH]nc(C)c3c(NCCCN(C)C)c2c1 [(20)] | 0.8 (≈ 2.55 µM) |  | 
COc1ccc2nc3c(c(C)nn3C(=O)[C@@H](N)C(C)C)c(NCCN3CCOCC3)c2c1 [(23)] | 0.2 (≈ 0.454 µM) | 20 (≈ 45.4 µM) | 
COc1ccc2nc3c(c(C)nn3C(=O)[C@H](C)N)c(Cl)c2c1 [(32)] | 1.8 (≈ 5.65 µM) | 0.2 (≈ 0.627 µM) | 
COc1ccc2nc3[nH]nc(C)c3c(NCCOCCO)c2c1 [(1)] | 5 (≈ 15.8 µM) |  | 
COc1ccc2nc3c(c(C)nn3C(=O)[C@@H](C)N)c(Cl)c2c1 [(33)] | 0.5 (≈ 1.57 µM) | 0.2 (≈ 0.627 µM) | 
COc1ccc2nc3[nH]nc(C)c3c(NCC(=O)NCCN3CCOCC3)c2c1 [(30)] | 2 (≈ 5.02 µM) | 20 (≈ 50.2 µM) | 
CCN(CC)CC(=O)Nc1c(C)cccc1C [lidocaine, 2-(diethylamino)-N-(2,6-dimethylphenyl)acetamide] |  |  | antiviral agent in cell culture against HSV-1 (HSV-1): antiviral agent in cell culture against HSV-1; antiviral agent in cell culture against HSV-2 (HSV-2): antiviral agent in cell culture against HSV-1 and HSV-2; effective in the treatment of HSV oral and genital lesions (HSV [4]): particularly effective; able to treat herpes virus infections (herpes virus [5]): able to treat herpes virus infections of mammals; enhancement of antiviral activity (herpes virus [6]): significantly enhances
COc1ccc2nc3[nH]nc(C)c3c(NCCO)c2c1 [(3)] | 1.3 (≈ 4.77 µM) | 2.3 (≈ 8.45 µM) | CC50 [2]: 8.2 µg/mL (≈ 30.1 µM)
COc1ccc2nc3[nH]nc(C)c3c(NCCN3CCOCC3)c2c1 [(4)] | 20 (≈ 58.6 µM) | 10 (≈ 29.3 µM) | CC50 [2]: 100 µg/mL (≈ 293 µM)
CCC(C)[C@H](N)C(=O)n1nc(C)c2c(Cl)c3cc(OC)ccc3nc21 (some centres unmarked) [(31)] | 0.2 (≈ 0.554 µM) | 0.8 (≈ 2.22 µM) | 
CNCC(=O)n1nc(C)c2cc3cc(OC)ccc3nc21 [(24)] | 0.2 (≈ 0.703 µM) | 2 (≈ 7.03 µM) | 
COc1ccc2nc3c(cc2c1)c(C)nn3C(=O)C(C)(C)N [(25)] | 0.2 (≈ 0.67 µM) | 20 (≈ 67 µM) | 
